The nature of data set [1]: Half life in male Crl:CD Sprague-Dawley rat at 40 to 80 mg/kg/day, po or iv measured after 28 days. Particulars: in vivo, dose 40-80 mg/kg/day, time 28 day. The class given is ADME, organism-based.
Data set [2] in a line: Half life in F344/N Jcl-rnu rat at 40 to 80 mg/kg/day, po or iv measured after 28 days. Type of data set: ADME, organism-based. To be noted: in vivo, dose 40-80 mg/kg/day, time 28 day.
The nature of data set [3]: Oral bioavailability in male Crl:CD Sprague-Dawley rat at 40 to 80 mg/kg/day measured after 28 days. To be noted: in vivo, dose 40-80 mg/kg/day, time 28 day. The class given is ADME, organism-based.
A short description of data set [4]: Oral bioavailability in F344/N Jcl-rnu rat at 40 to 80 mg/kg/day measured after 28 days. The class given is ADME, organism-based. To be noted: in vivo, dose 40-80 mg/kg/day, time 28 day.
The next data set deals with LNCaP. The data set is described as follows: Antitumor activity in human LNCaP cells xenografted in mouse model assessed as tumor growth regression at 200 mg/kg,po relative to control. The class given is functional. On the technique in general: In xenograft studies the graft and the host belong to different species.
The test system of the next data set is RS4-11. The data set is described as follows: Antitumor activity in human RS4-11 cells xenografted in mouse model assessed as tumor growth regression at 200 mg/kg,po relative to control. The class given is functional.

For `COc1ccc(/C=C/c2nc(NCCCN(C)C)c3ccccc3n2)cc1`, the half-life in data set [1] and in data set [2] was 14 h each time. The bioavailability in data set [3] and in data set [4] was 12% throughout.
In the case of `CC(C)(C)C[C@@H]1N[C@@H](C(=O)N[C@H]2CC[C@H](O)CC2)[C@H](c2cccc(Cl)c2F)[C@]12C(=O)Nc1cc(Cl)ccc12` [SAR-405838], the Activity in the data set on LNCaP was 80%; in the data set with RS4-11 it was 100%.

By half-life is commonly meant the time in which the quantity being followed falls by half. Lower therefore signals fast loss. Usually bioavailability stands for dose-corrected exposure relative to a reference, in per cent.

Values taken from ChEMBL document CHEMBL5512606, “An overview of the functions of p53 and drugs acting either on wild- or mutant-type p53” (Eur J Med Chem, 2024).
